Measured values from the supplement of paper PMC10307832.

Columns and labels:
Assay in all cases: relative viability (nuclei count vs DMSO), 5 days (fraction); higher = more cells survive
RERF-LC-KJ = system: RERF-LC-KJ
Method in brief: (§1)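 Values are medians from duplicate plates. Each reflects relative viability, defined as the nuclei count of treated wells over that of vehicle wells. Lung cancer cell lines in 1536-well plates were pin-tool dosed one day after seeding with one drug alone or with a fixed anchor-drug dose plus five library-drug doses (not always all listed) in √10 steps, then fixed, stained and imaged at 4× after 5 days.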

SW 900 = system: SW 900
Method in brief: as §1

LK-2 = system: LK-2
Method in brief: as §1

LU99A = system: LU99A
Method in brief: as §1

SK-LU-1 = system: SK-LU-1
Method in brief: as §1

NCI-H2342 = system: NCI-H2342
Method in brief: as §1

LCLC-103H = system: LCLC-103H
Method in brief: as §1

NCI-H1975 = system: NCI-H1975
Method in brief: as §1

HCC-78 = system: HCC-78
Method in brief: as §1

NCI-H1666 = system: NCI-H1666
Method in brief: as §1

LXF-289 = system: LXF-289
Method in brief: as §1

NCI-H2126 = system: NCI-H2126
Method in brief: as §1

EMC-BAC-2 = system: EMC-BAC-2
Method in brief: as §1

ChaGo-K-1 = system: ChaGo-K-1
Method in brief: as §1

EKVX = system: EKVX
Method in brief: as §1

SW 1573 = system: SW 1573
Method in brief: as §1

NCI-H23 = system: NCI-H23
Method in brief: as §1

PC-14 = system: PC-14
Method in brief: as §1

HCC-827 = system: HCC-827
Method in brief: as §1

NCI-H322M = system: NCI-H322M
Method in brief: as §1

EPLC-272H = system: EPLC-272H
Method in brief: as §1

NCI-H1563 = system: NCI-H1563
Method in brief: as §1

NCI-H2405 = system: NCI-H2405
Method in brief: as §1

For O=c1cc(N2CCOCC2)oc2c(-c3cccc4c3sc3ccccc34)cccc12 + COc1cccc2cc(-c3nc([C@H]4CC[C@H](C(=O)O)CC4)n4ncnc(N)c34)[nH]c12 [OSI-027] (partner 0.5 µM), the relative viability (RERF-LC-KJ; first compound 0.01 µM) was 0.617, the relative viability (RERF-LC-KJ; first compound 0.03162 µM) was 0.635 and the relative viability (RERF-LC-KJ; first compound 0.1 µM) was 0.6. For the same compound, the relative viability (RERF-LC-KJ; first compound 0.3162 µM) was 0.615, the relative viability (RERF-LC-KJ; first compound 1 µM) was 0.555 and the relative viability (SW 900; first compound 0.01 µM) was 0.565. It also gave a relative viability (SW 900; first compound 0.03162 µM) of 0.572, a relative viability (SW 900; first compound 0.1 µM) of 0.311 and a relative viability (SW 900; first compound 0.3162 µM) of 0.69. The relative viability (SW 900; first compound 1 µM) was 0.545, the relative viability (LK-2; first compound 0.01 µM) was 0.24 and the relative viability (LK-2; first compound 0.03162 µM) was 0.361. The relative viability (LK-2; first compound 0.1 µM) was 0.181, the relative viability (LK-2; first compound 0.3162 µM) was 0.219 and the relative viability (LK-2; first compound 1 µM) was 0.212. It also gave a relative viability (LU99A; first compound 0.01 µM) of 0.277, a relative viability (LU99A; first compound 0.03162 µM) of 0.337 and a relative viability (LU99A; first compound 0.1 µM) of 0.323. The relative viability (LU99A; first compound 0.3162 µM) was 0.311, the relative viability (LU99A; first compound 1 µM) was 0.347 and the relative viability (SK-LU-1; first compound 0.01 µM) was 0.35. For the same compound, the relative viability (SK-LU-1; first compound 0.03162 µM) was 0.393, the relative viability (SK-LU-1; first compound 0.1 µM) was 0.355 and the relative viability (SK-LU-1; first compound 0.3162 µM) was 0.398. For the same compound, the relative viability (SK-LU-1; first compound 1 µM) was 0.415, the relative viability (NCI-H2342; first compound 0.01 µM) was 0.641 and the relative viability (NCI-H2342; first compound 0.03162 µM) was 0.591. The relative viability (NCI-H2342; first compound 0.1 µM) was 0.652, the relative viability (NCI-H2342; first compound 0.3162 µM) was 0.715 and the relative viability (NCI-H2342; first compound 1 µM) was 0.533. It also gave a relative viability (LCLC-103H; first compound 0.01 µM) of 0.446, a relative viability (LCLC-103H; first compound 0.03162 µM) of 0.462 and a relative viability (LCLC-103H; first compound 0.1 µM) of 0.513. The relative viability (LCLC-103H; first compound 0.3162 µM) was 0.474, the relative viability (LCLC-103H; first compound 1 µM) was 0.419 and the relative viability (NCI-H1975; first compound 0.01 µM) was 0.718. For the same compound, the relative viability (NCI-H1975; first compound 0.03162 µM) was 0.73, the relative viability (NCI-H1975; first compound 0.1 µM) was 0.792 and the relative viability (NCI-H1975; first compound 0.3162 µM) was 0.874. The relative viability (NCI-H1975; first compound 1 µM) was 0.752, the relative viability (HCC-78; first compound 0.01 µM) was 0.369 and the relative viability (HCC-78; first compound 0.03162 µM) was 0.362. For the same compound, the relative viability (HCC-78; first compound 0.1 µM) was 0.297, the relative viability (HCC-78; first compound 0.3162 µM) was 0.347 and the relative viability (HCC-78; first compound 1 µM) was 0.342. It also gave a relative viability (NCI-H1666; first compound 0.01 µM) of 0.864, a relative viability (NCI-H1666; first compound 0.03162 µM) of 0.922 and a relative viability (NCI-H1666; first compound 0.1 µM) of 0.847. For the same compound, the relative viability (NCI-H1666; first compound 0.3162 µM) was 0.839, the relative viability (NCI-H1666; first compound 1 µM) was 0.79 and the relative viability (LXF-289; first compound 0.01 µM) was 0.807. For the same compound, the relative viability (LXF-289; first compound 0.03162 µM) was 0.778, the relative viability (LXF-289; first compound 0.1 µM) was 0.755 and the relative viability (LXF-289; first compound 0.3162 µM) was 0.825. For the same compound, the relative viability (LXF-289; first compound 1 µM) was 0.81, the relative viability (NCI-H2126; first compound 0.01 µM) was 0.709 and the relative viability (NCI-H2126; first compound 0.03162 µM) was 0.707. It also gave a relative viability (NCI-H2126; first compound 0.1 µM) of 0.706, a relative viability (NCI-H2126; first compound 0.3162 µM) of 0.772 and a relative viability (NCI-H2126; first compound 1 µM) of 0.702. For the same compound, the relative viability (EMC-BAC-2; first compound 0.01 µM) was 0.409, the relative viability (EMC-BAC-2; first compound 0.03162 µM) was 0.427 and the relative viability (EMC-BAC-2; first compound 0.1 µM) was 0.419. The relative viability (EMC-BAC-2; first compound 0.3162 µM) was 0.423, the relative viability (EMC-BAC-2; first compound 1 µM) was 0.385 and the relative viability (ChaGo-K-1; first compound 0.01 µM) was 0.488. It also gave a relative viability (ChaGo-K-1; first compound 0.03162 µM) of 0.681, a relative viability (ChaGo-K-1; first compound 0.1 µM) of 0.363 and a relative viability (ChaGo-K-1; first compound 0.3162 µM) of 0.706. It also gave a relative viability (ChaGo-K-1; first compound 1 µM) of 0.628, a relative viability (EKVX; first compound 0.01 µM) of 0.673 and a relative viability (EKVX; first compound 0.03162 µM) of 0.715. It also gave a relative viability (EKVX; first compound 0.1 µM) of 0.659, a relative viability (EKVX; first compound 0.3162 µM) of 0.719 and a relative viability (EKVX; first compound 1 µM) of 0.749. The relative viability (SW 1573; first compound 0.01 µM) was 0.675, the relative viability (SW 1573; first compound 0.03162 µM) was 0.709 and the relative viability (SW 1573; first compound 0.1 µM) was 0.678. For the same compound, the relative viability (SW 1573; first compound 0.3162 µM) was 0.615, the relative viability (SW 1573; first compound 1 µM) was 0.737 and the relative viability (NCI-H23; first compound 0.01 µM) was 0.641. The relative viability (NCI-H23; first compound 0.03162 µM) was 0.633, the relative viability (NCI-H23; first compound 0.3162 µM) was 0.757 and the relative viability (NCI-H23; first compound 1 µM) was 0.723. The relative viability (PC-14; first compound 0.01 µM) was 0.954, the relative viability (PC-14; first compound 0.03162 µM) was 0.858 and the relative viability (PC-14; first compound 0.1 µM) was 0.74. It also gave a relative viability (PC-14; first compound 0.3162 µM) of 1.04, a relative viability (PC-14; first compound 1 µM) of 0.795 and a relative viability (HCC-827; first compound 0.01 µM) of 0.853. The relative viability (HCC-827; first compound 0.03162 µM) was 0.813, the relative viability (HCC-827; first compound 0.1 µM) was 0.744 and the relative viability (HCC-827; first compound 0.3162 µM) was 0.772. It also gave a relative viability (HCC-827; first compound 1 µM) of 0.791, a relative viability (NCI-H322M; first compound 0.01 µM) of 0.599 and a relative viability (NCI-H322M; first compound 0.03162 µM) of 0.646. For the same compound, the relative viability (NCI-H322M; first compound 0.1 µM) was 0.282, the relative viability (NCI-H322M; first compound 0.3162 µM) was 0.579 and the relative viability (NCI-H322M; first compound 1 µM) was 0.43. For the same compound, the relative viability (EPLC-272H; first compound 0.01 µM) was 0.33, the relative viability (EPLC-272H; first compound 0.03162 µM) was 0.296 and the relative viability (EPLC-272H; first compound 0.3162 µM) was 0.332. It also gave a relative viability (EPLC-272H; first compound 1 µM) of 0.314, a relative viability (NCI-H1563; first compound 0.01 µM) of 0.695 and a relative viability (NCI-H1563; first compound 0.03162 µM) of 0.741. The relative viability (NCI-H1563; first compound 0.1 µM) was 0.773, the relative viability (NCI-H1563; first compound 0.3162 µM) was 0.794 and the relative viability (NCI-H1563; first compound 1 µM) was 0.697. The relative viability (NCI-H2405; first compound 0.01 µM) was 0.717, the relative viability (NCI-H2405; first compound 0.03162 µM) was 0.615 and the relative viability (NCI-H2405; first compound 0.1 µM) was 0.564. For the same compound, the relative viability (NCI-H2405; first compound 0.3162 µM) was 0.663 and the relative viability (NCI-H2405; first compound 1 µM) was 0.685.
